Results reported in US7799969B2, “Methods for cloning rats by nuclear transfer” (Institut National de la Recherche Agronomique, priority 2003, dated 2010).
Where a SMILES comes first, the peptide text is derived from it. The star is where a group is joined. Cbz = O=C(OCc1ccccc1)*

Legend:
rat ovocytes [1] = experiment: Reversibility of the inhibition of spontaneous activation of rat ovocytes (parthenogenetic development after removal of MG132 and activation by butyrolactone); format: cell-based; conditions: repeats n = 5
rat ovocytes [2] = experiment: Inhibition of spontaneous activation of rat ovocytes by exposure to a proteasome inhibitor; format: cell-based; conditions: repeats n = 2
Description: The method according to the invention presents the advantage of strictly and reversibly controlling the ovocyte activation process by acting upstream of the biochemical processes that control activation and by preventing the degradation of the macromolecular compounds responsible for arrest of the ovocyte in metaphase and in particular of the cyclins. In order to do this, the ovocyte is exposed in vitro to one or more inhibitor(s) of proteasome, a key organelle of the cell: inhibition of its proteolytic action on the cyclins makes it possible to maintain an elevated level of MPF kinasic activity which determines metaphase arrest. The majority of ovocytes may thus be maintained in metaphase of the second meiotic division for several hours after their harvest (table 1).
Solutions: • Medium M2 (Hogan & al, 1994 In: Manipulating the Mouse Embryo) • Medium RECMB2*-MG132 (MG132=1.25 μM) • Medium M2-Hyaluronidase-MG132 (MG132=1.25 μM; Hyaluronidase=2.5 mg/ml) • Medium M2-MG132 (MG132=5.00 μM) • *RECMB2=medium mRlECM-BSA (Oh & al. (1998) Biol. Reprod.), with BSA=4 mg/ml and NaCl=100-130 mM.
10. The “decoronised” ovocytes are transferred to a drop of culture medium RECMB2-MG132.

[3] = test system: rat embryos reconstructed from ovocytes; experiment: Rate of foetal development of rat embryos reconstructed from ovocytes previously exposed to a proteasome inhibitor; format: in vivo
Description: By the method according to the invention, the ovocytes are transferred to a medium not containing inhibitor(s) right before conducting the reconstruction of the embryos. This makes it possible to avoid direct exposure of the nucleus donor cells to their action. Reconstruction of the embryos must then be carried out very rapidly before proteasome becomes functional again in order to avoid a premature activation of the ovocyte. The purpose of this rapid reconstruction is to […] the period during which the condensed chromatin of the nucleus is directly exposed to the ovocyte factors which make possible the reprogramming of the activity of the foreign nucleus. It then becomes possible to reconstitute a greater number of embryos during a given time period, and therefore to increase the number of transplanted embryos per recipient female for in vivo development. This possibility makes it possible to get around the low rate of implantation observed in the rat after transfer of a nucleus (table 4).
These foetuses may give rise to viable baby rats (table 4).
Set up the retention and enucleation-injection pipettes on their respective pipette holders. • 5. Position the pipettes so that their ends are horizontal, i.e., parallel to the coverglass of the micromanipulation chamber, and facing each other. • 6. Transfer the ovocytes and the cells to the micro-injection chamber by means of a pipette for manipulation of the ovocytes. • 7. Maintain an ovocyte on the maintenance pipette in order that the deformation of the plasma membrane under which the ovocyte metaphase is situated, is situated between 2 and 3 hr or between 3 and 4 hr. • 8. Apply the enucleation-injection pipette to the pellucid area at 3 hr. Verify that the pipette is in exactly the same plane as the pellucid area. Gently aspirate the pellucid area and activate the piezo system (setting 1) to puncture it. When the system is perfectly adjusted the pellucid area is punctured in a few seconds according to a perfect punch. • 9. Next, aspirate a cell whose morphology corresponds to the sought-for criteria into the enucleation-injection pipette and break its plasma membrane by several to-and-fro's in the pipette or by means of the piezo-Drill (a few impulsions are sufficient at setting 2). Maintain the cell close to the end of the micropipette. • 10. Penetrate into the perivitelline space of the ovocyte through the previously punctured orifice, apply the pipette against the plasma membrane and push the donor cell back to the end of the pipette and then push the pipette in up to the opposite end of the ovocyte without, however, reaching the plasma membrane opposite. • 11. Break the plasma membrane by means of one or more impulsions (1 to 3) of the Piezo-Drill (setting 2). • 12. Inject the cell into the cytoplasm of the ovocyte with the minimum possible medium. • 13. Gently withdraw the enucleation-injection pipette and re-close the ovocyte by aspirating the 2 ends of the broken plasma membrane and the ovocyte metaphase (enucleation). • 14. Transfer the reconstructed embryos into a micro-drop (50 μl) of RECMB2. • 15. Ovocyte activation is triggered or prolonged by transfer of the ovocytes to a micro-drop (20 μl) of RECMB2-BLI for a duration of activation generally between 1 and 2 hr. • 16. The ovocytes are then rinsed in 4-5 drops (50 μl) of RECMB2 to be cultured in the same medium while waiting to be transferred into a pseudogestating female or to prolong in vitro culture.

[4] = reconstructed embryos transferred to recipient females

CC(C)C[C@@H](C=O)NC(=O)[C@H](CC(C)C)NC(=O)[C@H](CC(C)C)NC(=O)OCc1ccccc1 [MG132, peptide aldehyde Cbz-LLL-H] (Cbz-Leu-Leu-Leu-aldehyde)
% of embryos (parthenogenetic development at the morula stage) (rat ovocytes [1]; t = 0 removal of MG132, exposure to MG132 for 120 min, activation by butyrolactone): 0% (0/71)
% of embryos (parthenogenetic development at the morula stage) (rat ovocytes [1]; t = 120 min, after removal of MG132 and induction of activation by butyrolactone): 45.9% (34/74)
% of activated ovocytes after collection (rat ovocytes [2]; t = 0): 0% (0/68)
% of activated ovocytes after collection (rat ovocytes [2]; t = 210 m after collection): 33.8% (23/68)
No. of foetuses (%) total ([3]; % in brackets): 55.9%
No. of foetuses (%) viable ([3]; % in brackets): 47.0%
pregnant recipients between D12-22 ([3]; number of recipient females): 11
living at D12-D14 ([3]; of the viable foetuses): 11
living rats at term ([3]; of the viable foetuses): 5
No. of foetuses total ([3]; rat, in vivo): 19
No. of foetuses viable ([3]; rat, in vivo): 16
implantation (%) [3, 4]: 5.4%
implantation (number) [3, 4]: 34
